One test deals with T1, EHMT1 (Homo sapiens, UniProt Q9H9B1).
T1 sequence (Q9H9B1 1-1298): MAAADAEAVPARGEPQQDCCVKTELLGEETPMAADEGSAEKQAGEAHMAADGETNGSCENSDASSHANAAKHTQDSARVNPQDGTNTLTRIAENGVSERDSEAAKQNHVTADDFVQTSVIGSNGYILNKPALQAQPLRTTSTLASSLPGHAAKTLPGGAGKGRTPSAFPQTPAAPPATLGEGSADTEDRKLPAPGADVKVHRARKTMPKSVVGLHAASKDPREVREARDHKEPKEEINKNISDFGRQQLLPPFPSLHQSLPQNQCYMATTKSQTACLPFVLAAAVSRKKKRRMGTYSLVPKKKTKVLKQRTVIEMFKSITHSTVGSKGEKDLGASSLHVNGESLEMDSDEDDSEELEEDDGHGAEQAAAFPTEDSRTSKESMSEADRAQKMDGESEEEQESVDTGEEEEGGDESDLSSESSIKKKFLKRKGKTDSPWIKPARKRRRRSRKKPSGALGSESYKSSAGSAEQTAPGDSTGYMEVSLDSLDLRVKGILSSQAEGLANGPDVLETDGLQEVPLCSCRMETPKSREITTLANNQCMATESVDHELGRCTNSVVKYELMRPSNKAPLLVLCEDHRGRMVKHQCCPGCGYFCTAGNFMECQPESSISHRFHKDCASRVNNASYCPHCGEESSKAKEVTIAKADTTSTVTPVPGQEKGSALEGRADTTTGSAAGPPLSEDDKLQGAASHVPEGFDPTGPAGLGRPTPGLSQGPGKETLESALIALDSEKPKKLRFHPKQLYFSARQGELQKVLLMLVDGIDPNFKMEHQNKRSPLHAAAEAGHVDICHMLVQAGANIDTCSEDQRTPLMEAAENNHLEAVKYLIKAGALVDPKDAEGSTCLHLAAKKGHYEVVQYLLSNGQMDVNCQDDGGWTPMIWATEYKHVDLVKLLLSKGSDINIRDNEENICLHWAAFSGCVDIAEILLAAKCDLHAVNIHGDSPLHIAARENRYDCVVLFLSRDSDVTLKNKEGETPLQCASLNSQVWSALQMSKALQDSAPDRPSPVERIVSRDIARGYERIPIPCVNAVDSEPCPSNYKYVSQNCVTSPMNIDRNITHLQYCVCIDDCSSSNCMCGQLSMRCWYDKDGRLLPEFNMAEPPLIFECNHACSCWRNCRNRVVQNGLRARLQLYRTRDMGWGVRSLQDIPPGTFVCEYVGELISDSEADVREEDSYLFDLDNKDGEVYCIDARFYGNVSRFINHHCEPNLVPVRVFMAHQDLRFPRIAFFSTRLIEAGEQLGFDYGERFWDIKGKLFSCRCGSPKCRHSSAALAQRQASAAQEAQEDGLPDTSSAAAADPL
As to the kind of experiment: EHMT1 enzyme assay on peptide substrate (EHMT1 PEP). It counts as biochemical. Particulars: read-out: EHMT1 PEP (IC50 μM).

Another test addresses T2, human EHMT2 913-1193 (Homo sapiens, UniProt Q96KQ7).
T2 construct: recombinant purified human EHMT2 913-1193, Viva; purchased Viva
T2 sequence (Q96KQ7 913-1193): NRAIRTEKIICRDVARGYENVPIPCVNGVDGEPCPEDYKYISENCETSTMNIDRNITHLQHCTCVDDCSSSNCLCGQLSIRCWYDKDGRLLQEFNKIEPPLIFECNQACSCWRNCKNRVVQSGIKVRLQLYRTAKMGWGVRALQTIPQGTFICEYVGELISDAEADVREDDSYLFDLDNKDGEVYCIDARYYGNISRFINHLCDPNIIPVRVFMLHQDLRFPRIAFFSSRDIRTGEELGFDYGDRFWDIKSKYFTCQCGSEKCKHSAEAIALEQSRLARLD
As to the kind of experiment: EHMT2 enzyme assay on histone peptide substrate (EHMT2 PEP). In kind it is biochemical. Particulars: recombinant human EHMT2 913-1193, histone H3 1-15 peptide, balanced conditions; read-out: EHMT2 PEP (IC50 μM). The gist of the method:
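Radiometric methyltransferase assay: 0.031 nM EHMT2 913-1193 preincubated 30 min with compound (10-point 3-fold series, top final 50 μM, 2% DMSO) in 20 mM Bicine pH 7.5, 1 mM TCEP. Biotinylated histone peptide methylated with ^3H-SAM for 60 min at room temperature, quenched with unlabeled SAM, captured on streptavidin Flashplates and counted.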

In patent US20210198277A1, “AMINE-SUBSTITUTED ARYL OR HETEROARYL COMPOUNDS” (Epizyme, Inc., priority 2016, published 2021) one finds IC50 data, which are given here for 22 molecules.

For orientation: IC50 means the concentration at which inhibition is half-maximal.

On to `COc1ccc(Nc2nccc3[nH]ncc23)cc1OCCCN1CCCC1` [Compound 582], for which the IC50 on EHMT1 and at human EHMT2 913-1193 was more than 10 µM throughout.

Regarding `COc1cnc(Nc2ccnc3[nH]ncc23)cc1OCCCN1CCCC1` [Compound 583], the 50% inhibitory concentration (IC50) on EHMT1 and at human EHMT2 913-1193 was 1 to 10 µM in each case.

For `CCN1CC(COc2cc(Nc3cccc4nncn34)ncc2OC)C1` [Compound 584], the IC50 on EHMT1 and on human EHMT2 913-1193 was more than 10 µM throughout.

For the molecule `COc1cnc(Nc2cccc3nccn23)cc1OCCCN1CCCC1` [Compound 585], the IC50 at EHMT1 and on human EHMT2 913-1193 was 1 to 10 µM each time.

Take `COc1cnc(Nc2cccn3ccnc23)cc1OCCCN1CCCC1` [Compound 586]: the IC50 on EHMT1 and on human EHMT2 913-1193 was 1 to 10 µM throughout.

Regarding `COc1cc2c(C3CCN(C)CC3)nc(N(C)C)nc2cc1OCCCN1CCCC1` [Compound 587], the IC50 at EHMT1 and on human EHMT2 913-1193 was less than 0.1 µM each time.

Regarding `CC(C)N1CC(COc2cnc(NC3CCNCC3)nc2)C1` [Compound 588], the 50% inhibitory concentration (IC50) at EHMT1 and on human EHMT2 913-1193 was more than 10 µM throughout.

For `COc1cnc(Nc2cccc3cncn23)cc1OCCCN1CCCC1` [Compound 589], the IC50 at EHMT1 and on human EHMT2 913-1193 was more than 10 µM throughout.

With `COc1ccc(Nc2nc(C)cc(NCC3CCOCC3)n2)cc1OCCCN1CCCC1` [Compound 590], the IC50 at EHMT1 and on human EHMT2 913-1193 was less than 0.1 µM in each case.

Regarding `COc1ncc(Nc2nc(C)cc(NCC3CCOCC3)n2)cc1OCCCN1CCCC1` [Compound 591], the IC50 on EHMT1 and at human EHMT2 913-1193 was less than 0.1 µM throughout.

Take `COc1ncc(Nc2nc(C)cc(NCC3CCOCC3)n2)cc1OC[C@@H]1CCN(C(C)C)C1` [Compound 592]: the IC50 on EHMT1 and on human EHMT2 913-1193 was 0.1 to 1 µM throughout.

Turning to `COc1ncc(Nc2nc(C)cc(NC(C)C)n2)cc1OCCCN1CCCC1` [Compound 593], the IC50 at EHMT1 and on human EHMT2 913-1193 was 0.1 to 1 µM in each case.

In the case of `COc1ncc(Nc2nc(C)cc(NCC3CCOCC3)n2)cc1OC[C@@H]1CCN(C2CCC2)C1` [Compound 594], the IC50 on EHMT1 was less than 0.1 µM; at human EHMT2 913-1193, 0.1 to 1 µM.

Take `COc1ncc(Nc2nc(C)cc(NCC3CCOCC3)n2)cc1OC[C@@H]1CCN(C2CCC2)C1` [Compound 595]: the 50% inhibitory concentration (IC50) at EHMT1 and at human EHMT2 913-1193 was 0.1 to 1 µM throughout.

Regarding `COc1cnc(Nc2cc(C)nc3[nH]ncc23)cc1OCCCN1CCCC1` [Compound 596], the IC50 on EHMT1 and on human EHMT2 913-1193 was 1 to 10 µM in each case.

`C/C=C/C(=O)Nc1cc(OCCCN2CCCC2)c(OC)cn1` [Compound 597]: the IC50 on EHMT1 and at human EHMT2 913-1193 was more than 10 µM throughout.

For the molecule `C/C=C/C(=O)Nc1ccc(OC)c(OCCCN2CCCC2)c1` [Compound 598], the IC50 at EHMT1 and on human EHMT2 913-1193 was more than 10 µM each time.

For `CCN1CC[C@@H](COc2cc(Nc3nc(C)cc(NC)n3)cnc2OC)C1` [Compound 599], the IC50 on EHMT1 was less than 0.1 µM; on human EHMT2 913-1193 it was 0.1 to 1 µM.

On to `CNc1cc(C)nc(Nc2ccc(OC)c(OC[C@@H]3CCNC3)c2)n1` [Compound 600], for which the IC50 at EHMT1 and on human EHMT2 913-1193 was less than 0.1 µM each time.

On to `CCc1cc(NC)nc(Nc2cnc(OC)c(OC[C@@H]3CCN(CC)C3)c2)n1` [Compound 601], for which the half-inhibitory concentration (IC50) at EHMT1 was less than 0.1 µM; at human EHMT2 913-1193, 0.1 to 1 µM.

Regarding `CCN1CC[C@@H](COc2cc(Nc3nc(C)cc(NC(C)C)n3)ccc2OC)C1` [Compound 602], the IC50 at EHMT1 and at human EHMT2 913-1193 was 0.1 to 1 µM each time.

Turning to `COc1ccc(Nc2nc(C)cc(NC(C)C)n2)cc1OCCCN1CCCC1` [Compound 603], the IC50 at EHMT1 and on human EHMT2 913-1193 was less than 0.1 µM each time.
